# Experiments:
# [1] = target: T1, Muscarinic acetylcholine receptor M2 (Homo sapiens, UniProt P08172)
# T1 sequence (P08172 whole entry): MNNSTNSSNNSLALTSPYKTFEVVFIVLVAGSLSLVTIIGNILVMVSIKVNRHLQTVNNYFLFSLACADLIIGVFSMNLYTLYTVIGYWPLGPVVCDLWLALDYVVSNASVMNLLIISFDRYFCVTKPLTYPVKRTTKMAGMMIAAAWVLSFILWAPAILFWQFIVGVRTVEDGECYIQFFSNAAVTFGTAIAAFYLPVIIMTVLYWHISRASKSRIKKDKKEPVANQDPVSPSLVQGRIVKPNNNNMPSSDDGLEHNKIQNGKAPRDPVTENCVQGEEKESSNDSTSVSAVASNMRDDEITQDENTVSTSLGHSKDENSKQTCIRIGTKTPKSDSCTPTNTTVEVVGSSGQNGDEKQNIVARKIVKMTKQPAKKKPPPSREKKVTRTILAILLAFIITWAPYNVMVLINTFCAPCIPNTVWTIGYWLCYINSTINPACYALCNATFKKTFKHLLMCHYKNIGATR
# [2] = target: T2, Muscarinic acetylcholine receptor M2 (Rattus norvegicus, UniProt P10980)
# T2 sequence (P10980 whole entry): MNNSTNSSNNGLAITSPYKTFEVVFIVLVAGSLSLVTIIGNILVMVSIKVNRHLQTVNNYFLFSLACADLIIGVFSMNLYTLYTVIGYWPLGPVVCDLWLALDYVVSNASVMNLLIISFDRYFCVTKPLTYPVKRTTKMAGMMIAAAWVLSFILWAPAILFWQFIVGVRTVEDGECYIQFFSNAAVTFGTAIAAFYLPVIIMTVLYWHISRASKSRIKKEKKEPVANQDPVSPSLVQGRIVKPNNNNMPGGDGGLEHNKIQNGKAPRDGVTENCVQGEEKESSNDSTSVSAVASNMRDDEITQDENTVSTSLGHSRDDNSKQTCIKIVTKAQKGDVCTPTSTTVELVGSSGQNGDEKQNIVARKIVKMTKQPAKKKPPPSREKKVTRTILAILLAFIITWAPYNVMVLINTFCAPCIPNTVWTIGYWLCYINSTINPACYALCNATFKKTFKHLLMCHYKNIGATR
Compound,Ki [1],Ki [2]
COc1cc2c3cc1Oc1cc(ccc1O)C[C@H]1c4c(cc(OC)c(O)c4Oc4ccc(cc4)C[C@@H]3N(C)CC2)CC[N+]1(C)C [CAS_57-94-3],97 nM,–
C=C[C@@H]1CN2CC[C@H]1C[C@@H]2[C@H](O)c1ccnc2ccc(OC)cc12 [Quinidine],7.5 nM,–
C[N+](C)(C)CCCCCCCCCC[N+](C)(C)C [Decamethonium Iodide],25 nM,–
CC[N+](CC)(CC)CCOc1cccc(OCC[N+](CC)(CC)CC)c1OCC[N+](CC)(CC)CC,–,2610 nM
O=C1CCCN1CC#CCN1CCCC1 [1-[4-(2-oxo-pyrrolidin-1-yl)-but-2-ynyl]-pyrrolidinium],235 nM,290 nM
"CCN(CC)CC1CCCCN1CC(=O)N1c2ccccc2C(=O)Nc2cccnc21 (configuration not stated) [(AF-DX 116) 11-[2-(2-Diethylaminomethyl-piperidin-1-yl)-acetyl]-5,11-dihydro-benzo[e]pyrido[3,2-b][1,4]diazepin-6-one]",67 nM,50 nM
C[N+]1(C)CCO[C@@](O)(c2ccc(-c3ccc([C@@]4(O)C[N+](C)(C)CCO4)cc3)cc2)C1 [CAS_312-45-8],11 nM,–
C[C@H]1OC(=O)C2C[C@H]3CCCC[C@@H]3[C@@H](/C=C/[C@@H]3CCC[C@H](C)N3C)C21 (some centres not stated) [HIMBACINE],12 nM,14 nM
CN(C)CCCN1c2ccccc2CCc2ccccc21,0.13 nM,–
